Experimental data published in ChEMBL document CHEMBL2151028, “Analysis of the mushroom nephrotoxin orellanine and its glucosides” (J Nat Prod, 2012).

Legend:
Assay type in all cases: organism-based
Details in all cases: in vivo
[1] = species: Homo sapiens; test: Acute toxicity in human
[2] = Acute toxicity in ip dosed rat
[3] = Acute toxicity in po dosed mouse

For [O-][n+]1ccc(O)c(O)c1-c1c(O)c(O)cc[n+]1[O-] [ORELLANINE], the LD50 [1] was 29 g, the LD50 [2] was 5 mg/kg and the LD50 [3] was 12 mg/kg.
